Experimental data published in patent US12678425B2, “Methods for treating against viruses” (Howard University, priority 2019, dated 2026).

Key:
[1] = system: HEp-2 cells; assay: Trypan blue exclusion cell viability; assay type: cell-based; conditions: 24-hour treatment
Description: In order to assess whether the compounds are producing any toxicity that can led to the cell deaths, we evaluated the cell viability by the trypan blue exclusion method. As long-term inhibition of RACK1 expression has been reported to cell cycle arrest, we limited our experimental treatments to 24 h and evaluated the cell viability of almost full confluent cells after 24 h of compound treatment.
In table 2, the viability of cells was measured with Trypan blue exclusion assay in a Cellometer (Nexcelom, Lawrence, MA). The percentage survival of the compound treated cells was evaluated along with the DMSO treated cells. The values represent the mean f SE of three separate well based replicates.

[2] = system: HSV-1 strain 17; assay: Plaque formation unit (pfu) assay in HEp-2 cells
Description: The viral plaque assay was performed as previously described (Tang et al. “Determination of minimum herpes simplex virus type 1 components necessary to localize transcriptionally active DNA to ND10,” J. Virol. 2003; 77:5821-28), with slight modifications. The HSV-1 strain 17 was diluted serially in a volume of 1 mL. Then 300 ul of the virus was added onto confluent HEp-2 cell monolayers in 12-well plates; each dilution had 3 wells. After adsorption for 2 h, the medium was removed and the cells were washed twice with serum-free DMEM and overlaid with phenol-free DMEM containing 5% FCS, 0.5% low-melting point agarose (GIBCO), and 1% penicillin-streptomycin. The cells were incubated at 370 C for 48 hours. Neutral red was added on the agarose to stain the live cells. The plaques were counted and reported as pfu per mL. Mean pfu was determined after averaging the number of pfu from different dilutions.

COc1ccc(-c2nnc(SCC(=O)O)n2N)cc1 [SD-29-12]
HEp-2 Cell viability, Mean (percentage survival) ([1]; 10 μM): 92.7%
HEp-2 Cell viability, Mean (percentage survival) ([1]; 100 μM): 97.7%
Plaque formation unit (pfu) ([2]; 0 hpl): 0 ± 0 PFU/mL
Plaque formation unit (pfu) ([2]; 6 hpl): 3.8 ± 0.07 × 10^2 PFU/mL
Plaque formation unit (pfu) ([2]; 12 hpl): 3.6 ± 0.04 × 10^3 PFU/mL
Plaque formation unit (pfu) ([2]; 24 hpl): 2.6 ± 0.03 × 10^6 PFU/mL
